Experimental data taken from patent US6310095A, “Inhibitors of protein isoprenyl transferases” (University of Pittsburgh, priority 1998, dated 2001).
Where a name gives a salt, the structure may show the parent alone.

Biological target: T1, protein farnesyltransferase (Rattus norvegicus, UniProt Q02293+Q04631)
T1 construct: Rat brain protein farnesyltransferase activity is measured; from tissue; host or cells: rat brain; purified according to Reiss et al., Cell 62:81-88 (1990), steps one through three
Experiment: in vitro inhibition of protein farnesyltransferase (scintillation proximity assay, biotin-K Ras B fragment)
Assay type: biochemical
Conditions: at 1 × 10^-6 M
Excerpt: The ability of the compounds of the invention to inhibit protein farnesyltransferase or protein geranylgeranyltransferase can be measured according to the method of Moores, et al., J. Biol. Chem. 266: 14603 (1991) or the method of Vogt, et al., J. Biol. Chem. 270:660-664 (1995). In addition, procedures for determination of the inhibition of farnesylation of the oncogene protein Ras are described by Goldstein, et al., J. Biol. Chem., 266:15575-15578 (1991) and by Singh in U.S. Pat. No. 5,245,061.
In addition, in vitro inhibition of protein farnesyltransferase may be measured by the following procedure. Rat brain protein farnesyltransferase activity is measured using an Amersham Life Science commercial scintillation proximity assay kit and substituting a biotin-K Ras B fragment (biotin-[…]CO2 H), 0.1 mM final concentration, for the biotin-lamin substrate provided by Amersham. The enzyme is purified according to Reiss, Y., et al., Cell, 62: 81-88 (1990), utilizing steps one through three.
The % inhibition of protein farnesyltransferase was determined for representative compounds of the invention.

| Compound | % inhibition of farnesyltransferase [%] |
| --- | --- |
| CSCC[C@H](NC(=O)c1ccc(CCCCC2CCCCC2)cc1-c1ccccc1C)C(=O)O [Example 478] | 98 |
| CSCC[C@H](NC(=O)c1ccc(C=CCCCc2ccccc2)cc1-c1ccccc1C)C(=O)O [Example 480] | 87 |
| CSCC[C@H](NC(=O)c1ccc(/C=C/c2cncnc2)cc1-c1ccccc1C)C(=O)O [Example 494] | 96 |
| CSCC[C@H](NC(=O)c1ccc(/C=C/c2cnccn2)cc1-c1ccccc1C)C(=O)O [Example 495] | 95 |
| CSCC[C@H](NC(=O)c1ccc(C=CCc2ccc3ccccc3c2)cc1-c1ccccc1C)C(=O)O [Example 496] | 93 |
| CSCC[C@H](NC(=O)c1ccc(Sc2ccc3ccccc3c2)cc1-c1ccccc1C)C(=O)O [Example 497] | 94 |
| CSCC[C@H](NC(=O)c1ccc(SCCc2ccccc2)cc1-c1ccccc1C)C(=O)O [Example 498] | 98 |

Other lines, results leading:

| % inhibition of farnesyltransferase [%] | Compound |
| --- | --- |
| 99 | CCOC[C@H](CC1CCCCC1)OCc1ccc(C(=O)N[C@@H](CCSC)C(=O)O)c(-c2ccccc2C)c1 [Example 525] |
| 99 | CSCC[C@H](NC(=O)c1ccc(CNC(CC2CCCCC2)C(O)C(O)CC(C)C)cc1-c1ccccc1C)C(=O)O (stereo partly drawn) [Example 529] |
| 94 | CSCC[C@H](NC(=O)c1ccc(COCc2ccoc2)cc1-c1ccccc1C)C(=O)O [Example 530] |

Same assay, conditions: at 1 × 10^-6 M; read-out: % inhibition of farnesyltransferase

| Compound | inhibition at 1 µM [%] |
| --- | --- |
| CSCC[C@H](NC(=O)c1ccc(NCC(CO)(Cc2ccccc2)Cc2ccccc2)cc1-c1ccccc1C)C(=O)O [Example 475, N-[4-N-(2,2-dibenzyl-3-hydroxypropyl)amino-2-(2-methylphenyl)benzoyl]methionine sodium salt] | 21 |
| CSCC[C@H](NC(=O)c1ccc(NCC(CO)Cc2ccccc2)cc1-c1ccccc1C)C(=O)O (stereo partly drawn) [Example 476, N-[4-N-(2-benzyl-3-hydroxypropyl)amino-2-(2-methylphenyl)benzoyl]methioninesodium salt] | 91 |
| CSCC[C@H](NC(=O)c1ccc(NCC(CO)CC2CCCCC2)cc1-c1ccccc1C)C(=O)O (stereo partly drawn) [Example 479, N-[4-N-(2-cyclohexylmethyl-3-hydroxypropyl)amino-2-(2-methylphenyl)benzoyl]methionine] | 95 |
| CSCC[C@H](NC(=O)c1ccc(NC(=O)c2cnccc2C(F)(F)F)cc1-c1ccccc1C)C(=O)O [Example 481, N-[4-N-(4-trifluoromethylnicotinoyl)amino-2-(2-methylphenyl)benzoyl]methionine lithium salt] | 95 |
| CSCC[C@H](NC(=O)c1ccc(NCCO)cc1-c1ccccc1)C(=O)O [Example 502, N-[4-N-2-hydroxyethylamino-2-phenylbenzoyl]methionine] | 24 |
| CSCC[C@H](NC(=O)c1ccc(NC(=O)[C@@H](N)COCc2ccccc2)cc1-c1ccccc1)C(=O)O [Example 503, N-[4-(N-2-amino-3-benzyloxypropionyl)amino-2-phenylbenzoyl]methionine] | 57 |
| CSCC[C@H](NC(=O)c1ccc(CN(Cc2ccccc2)Cc2ccco2)cc1-c1ccccc1C)C(=O)O [Example 504, N-[4-N-(furan-2-ylmethyl)-N-benzylaminomethyl-2-(2-methylphenyl)benzoyl]methionine lithium salt] | 90 |
| CSCC[C@H](NC(=O)c1ccc(CN(CCO)c2ccccc2)cc1-c1ccccc1)C(=O)O [Example 505] | 72 |
| CSCC[C@H](NC(=O)c1ccc(CN(CCc2ccccc2)c2ccccc2)cc1-c1ccccc1C)C(=O)O [Example 507] | 96 |
| CSCC[C@H](NC(=O)c1ccc(CN(CCCc2ccccc2)c2ccccc2)cc1-c1ccccc1C)C(=O)O [Example 508] | 95 |
| CSCC[C@H](NC(=O)c1ccc(CN(CC(c2ccccc2)c2ccccc2)c2ccccc2)cc1-c1ccccc1C)C(=O)O [Example 509] | 77 |
| CSCC[C@H](NC(=O)c1ccc(CN(CC23CC4CC(CC(C4)C2)C3)c2ccccc2)cc1-c1ccccc1C)C(=O)O [Example 510] | 84 |
| CSCC[C@H](NC(=O)c1ccc(CN(Cc2ccccc2)Cc2ccccc2)cc1-c1ccccc1C)C(=O)O [Example 512, N-[4-N,N-dibenzylaminomethyl-2-(2-methylphenyl)benzoyl]methionine lithium salt] | 94 |
| CSCC[C@H](NC(=O)c1ccc(CN(CCc2ccccc2)Cc2ccccc2)cc1-c1ccccc1C)C(=O)O [Example 513, N-[4-N-(2-phenylethyl)-N-benzylaminomethyl-2-(2-methylphenyl)benzoyl]methionine lithium salt] | 96 |

Second part, the molecule after the results:

| inhibition at 1 µM [%] | Compound |
| --- | --- |
| 94 | CSCC[C@H](NC(=O)c1ccc(CN(Cc2ccccc2)Cc2cccc(Oc3ccccc3)c2)cc1-c1ccccc1C)C(=O)O [Example 514, N-[4-N-(3-phenoxybenzyl)-N-benzylaminomethyl-2-(2-methylphenyl)benzoyl]methionine lithium salt] |
| 72 | CSCC[C@H](NC(=O)c1ccc(CN(CCO)Cc2ccccc2)cc1-c1ccccc1)C(=O)O [Example 515, N-[4-N-(2-hydroxyethyl)-N-benzylaminomethyl-2-phenylbenzoyl]methionine lithium salt] |
| 95 | CSCC[C@H](NC(=O)c1ccc(CN(C)CCc2ccccc2)cc1-c1ccccc1C)C(=O)O [Example 516, N-[4-N-methyl-N-(2-phenyethyl)aminomethyl-2-(2-methylphenyl)benzoyl]methionine lithium salt] |
| 99 | CSCC[C@H](NC(=O)c1ccc(CNC(CC2CCCCC2)C(O)C(O)CC(C)C)cc1-c1ccccc1C)C(=O)O (stereo partly drawn) [Example 528] |

Same assay, conditions: at 1 × 10^-7 M

| Compound | % inhibition of farnesyltransferase [%] |
| --- | --- |
| CSCC[C@H](NC(=O)c1ccc(C#Cc2cncnc2)cc1-c1ccccc1C)C(=O)[O-].[Li+] [Example 493] | 51 |
| C=C(C)C1CC=C(COCc2ccc(C(=O)N[C@@H](CCSC)C(=O)O)c(-c3ccccc3C)c2)CC1 (stereo partly drawn) [Example 521] | 94 |
| CSCC[C@H](NC(=O)c1ccc(COC(Cc2ccccc2)Cc2ccccc2)cc1-c1ccccc1C)C(=O)[O-].[Li+] [Example 522] | 93 |
| CSCC[C@H](NC(=O)c1ccc(COCCc2ccco2)cc1-c1ccccc1C)C(=O)[O-].[Li+] [Example 531] | 74 |
| CSCC[C@H](NC(=O)c1ccc(COCc2ccc(C)o2)cc1-c1ccccc1C)C(=O)O [Example 532] | 88 |

Same assay, conditions: at 1 × 10^-7 M; read-out: % inhibition of farnesyltransferase

| Compound | inhibition at 0.1 µM [%] |
| --- | --- |
| CSCC[C@H](NC(=O)c1ccc(CN(CCC23CC4CC(CC(C4)C2)C3)c2ccccc2)cc1-c1ccccc1C)C(=O)O [Example 511] | 82 |
| CSCC[C@H](NC(=O)c1ccc(CNCCc2c[nH]c3ccccc23)cc1-c1ccccc1C)C(=O)O [Example 519, N-[4-N-(2-indol-3-ylethyl)aminomethyl-2-(2-methylphenyl)benzoyl]methionine lithium salt] | 89 |
| CSCC[C@H](NC(=O)c1ccc(CN[C@H](CO)C2CCCCC2)cc1-c1ccccc1C)C(=O)O [Example 520, N-[4-N-(2-cyclohexyl-1-ethan-1-ol-2-yl)aminomethyl-2-(2-methylphenyl)benzoyl]methionine lithium salt] | 97 |
| CSCC[C@H](NC(=O)c1ccc(CNC(Cc2ccccc2)Cc2ccccc2)cc1-c1ccccc1C)C(=O)O [Example 523, N-[4-N-(1,3-diphenylpropan-2-yl)aminomethyl-2-(2-methylphenyl)benzoyl]methionine lithium salt] | 97 |
| CSCC[C@H](NC(=O)c1ccc(CNC(CC2CCCCC2)CC2CCCCC2)cc1-c1ccccc1C)C(=O)O [Example 524, N-[4-N-(1,3-dicyclohexylpropan-2-yl)aminomethyl-2-(2-methylphenyl)benzoyl]methionine lithium salt] | 99 |
| CSCC[C@H](NC(=O)c1ccc(CN[C@H](/C=C\CC(C)C)CC2CCCCC2)cc1-c1ccccc1C)C(=O)O [Example 526, N-[4-N-(1-Cyclohexyl-6-methylhept-3-en-2-yl)aminomethyl-2-(2-methylphenyl)benzoyl]methionine lithium salt] | 96 |
| CSCC[C@H](NC(=O)c1ccc(CN[C@H](CCCC(C)C)CC2CCCCC2)cc1-c1ccccc1C)C(=O)O [Example 527, N-[4-N-(1-Cyclohexyl-6-methylheptan-2-yl)aminomethyl-2-(2-methylphenyl)benzoyl]methionine lithium salt] | 97 |

Same assay, conditions: at 1 × 10^-8 M; read-out: % inhibition of farnesyltransferase

| Compound | inhibition at 0.01 µM [%] |
| --- | --- |
| CSCC[C@H](NC(=O)c1ccc(CN(Cc2ccccc2)c2cnccn2)cc1-c1ccccc1C)C(=O)O [Example 517, N-[4-N-benzyl-N-pyrazin-2-ylaminomethyl-2-(2-methylphenyl)benzoyl]methionine lithium salt] | 92 |
| CSCC[C@H](NC(=O)c1ccc(CN(CCc2ccccc2)c2cncnc2)cc1-c1ccccc1C)C(=O)O [Example 518, N-[4-N-(2-phenyethyl)-N-pyrimidin-5-ylaminomethyl-2-(2-methylphenyl)benzoyl]methionine lithium salt] | 90 |
